Entries after “also recorded” stand apart in the source; their conditions may differ.
Columns and labels:
ACAT1 = experiment: ACAT activity assay (conversion of 3H-cholesterol to cholesteryl esters); type: cell-based, mouse; details: PS-DKO cells; 100 nM BI, 12-16 h
Experimental: To measure cholesterol uptake in vivo, cultured cells were incubated in serum-free medium for 2 h to remove all exogenous lipids. After that, 2.5 μCi/ml of 3H-cholesterol was added to FBS-free DMEM containing 2% FAF-BSA, allowed to equilibrate for at least 30 min at 37° C., and the radiolabeled medium was added to the cells for the indicated periods of time. Cells were then washed and collected in DPBS, removing a small aliquot for protein quantification. Lipids were extracted in 3 volumes of chloroform:methanol (2:1 v/v). After vortexing and centrifugation at 8000×g for 5 min, the organic phase was blown to dryness under nitrogen. […] Iodine-stained bands corresponding to cholesterol and cholesteryl esters were scraped and counted.
(§1) To measure cholesterol esterification in vivo, cultured cells were incubated in serum-free medium for 2 h to remove all exogenous lipids. […] Cells were then washed and collected in DPBS, removing a small aliquot for protein quantification. […] Iodine-stained bands corresponding to cholesterol and cholesteryl esters were scraped and counted.
as §1

PS-DKO cells = experiment: Conversion of fluorescent sphingomyelin to ceramide in mitochondrial membranes (TLC); type: cell-based, mouse; details: PS-DKO (presenilin-mutant) cells; BI
Experimental: SMase activity was therefore measured in MEFs lacking APP and APLP2 (APP-DKO) (28). […] To test this, SMases was measured in PSDKO cells treated with α- and β-secretase inhibitors, to abrogate the production of C83 and C99, respectively. As controls, the γ-secretase products Aβ and AICD were also added back (FIG. 9G). […] For corroboration in vivo, PS-DKO and control cells were incubated with a fluorescent analog of sphingomyelin and analyzed its conversion to ceramide.
To explore this further, PS-DKO and control cells were incubated with a fluorescent sphingomyelin (FL-SM) and its localization and conversion to ceramide in mitochondrial membranes was analyzed by thin-layer chromatography (TLC).
To explore this further, we incubated PS-DKO and control cells with fluorescent sphingomyelin and analyzed its localization and conversion to ceramide in mitochondrial membranes by thin-layer chromatography (TLC).

PS-DKO MEFs = experiment: Uptake of Bodipy-labeled fluorescent cholesterol; type: cell-based, mouse
Experimental: To measure uptake of fluorescent cholesterol, cultured cells were incubated with 1 μM Bodipylabeled cholesterol (Avanti Lipids; 810255P) for 12 h. Alternatively, Bodipy-cholesterol was complexed with methyl-β-cyclodextrin at a 1:10 molar ratio of sterol:cyclodextrin and added to cultured cells to a final concentration of 25 μg/ml for 6-8 h. Cholesterol droplets were visualized by microscopy and fluorescence was quantified by ImageJ.

[1] = test system: fibroblasts from AD patients; experiment: Staining of lipid droplets with LipidTox Green; type: cell-based, human; details: 100 nM BI
Experimental: Quantification of total cholesterol and cholesteryl esters was performed using the Cholesterol/Cholesteryl Ester Quantitation kit from Calbiochem (428901). Staining of lipid droplets Staining of lipid droplets was performed using HCS LipidTox™ Deep Green neutral lipid stain (Invitrogen H34475) according to the manufacturer's instructions. Lipid droplet staining was quantified using ImageJ. The different values represent the product of the intensity and the area covered by the fluorescent signal above background in every cell examined.
Staining of lipid droplets was performed using HCS LipidTox™ Deep Green neutral lipid stain (Invitrogen H34475) according to the manufacturer's instructions. Lipid droplet staining was quantified using ImageJ. The different values represent the product of the intensity and the area covered by the fluorescent signal above background in every cell examined.

For `C[C@@H](NC(=O)c1cc(C(=O)N[C@@H](Cc2ccccc2)[C@H](O)CNC2CC2)cc(N(C)S(C)(=O)=O)c1)c1ccccc1` [BI, β-secretase inhibitor IV], the “incorporation of radiolabeled cholesterol into cholesteryl esters (ACAT1 activity)” value (ACAT1) was “reduced significantly the incorporation of radiolabeled cholesterol into cholesterol esters; also recorded: reduced the incorporation of cholesterol into cholesteryl esters”, the “increase in ceramide derived from fluorescent sphingomyelin at mitochondria” value (PS-DKO cells) was “this increase disappeared; also recorded: the elevated deposition of ceramide at mitochondria disappeared” and the “uptake of Bodipy-labeled fluorescent cholesterol” value (PS-DKO MEFs) was “reduced uptake”. For the same compound, the “number of lipid droplets (LDs)” value [1] was “reduced the number of LDs”.
